# Results taken from US20070265289A1, “2-Aminopyrimidine Derivative” (priority 2004, published 2007).
# Experiments:
# [1] = molecular target: T1, rat IKK2 (Rattus norvegicus, UniProt Q9QY78); experiment: Evaluation of rat IKK2 enzyme inhibition; assay type: biochemical; conditions: 0.5 μM ATP, probit analysis; read-out: IC50, rat IKK2 enzyme activity-inhibitory effect
# T1 construct: ORF of rat IKK2 (GenBank AF115282) was cloned from a rat pancreas cDNA library; FLAG; made in house; host or cells: Sf9 insect cells
# T1 sequence (Q9QY78 1-757): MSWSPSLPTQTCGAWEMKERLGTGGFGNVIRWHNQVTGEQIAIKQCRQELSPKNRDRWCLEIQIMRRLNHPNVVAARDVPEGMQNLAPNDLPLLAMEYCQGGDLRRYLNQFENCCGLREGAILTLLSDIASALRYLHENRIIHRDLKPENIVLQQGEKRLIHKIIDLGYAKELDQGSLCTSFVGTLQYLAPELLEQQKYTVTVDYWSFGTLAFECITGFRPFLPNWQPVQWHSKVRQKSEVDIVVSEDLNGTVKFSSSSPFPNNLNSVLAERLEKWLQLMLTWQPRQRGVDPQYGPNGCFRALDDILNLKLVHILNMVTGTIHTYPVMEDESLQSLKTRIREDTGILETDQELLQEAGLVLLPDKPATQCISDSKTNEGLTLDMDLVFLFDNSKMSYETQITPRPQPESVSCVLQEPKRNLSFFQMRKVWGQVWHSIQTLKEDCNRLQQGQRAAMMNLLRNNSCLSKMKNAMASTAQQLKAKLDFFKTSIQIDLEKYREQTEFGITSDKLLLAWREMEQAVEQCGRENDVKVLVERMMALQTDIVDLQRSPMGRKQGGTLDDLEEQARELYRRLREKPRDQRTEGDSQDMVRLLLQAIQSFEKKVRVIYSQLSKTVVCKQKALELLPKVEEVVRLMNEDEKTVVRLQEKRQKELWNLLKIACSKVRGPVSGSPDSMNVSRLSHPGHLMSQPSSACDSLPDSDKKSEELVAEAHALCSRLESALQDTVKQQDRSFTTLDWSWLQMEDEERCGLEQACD
# Experimental: (1) Evaluation of Rat IKK2 Enzyme Inhibition:
# ORF of rat IKK2 (GenBank AF115282) was cloned from a rat pancreas cDNA library, and with a FLAG-tag attached thereto, it was expressed in an Sf9 cell line. The cells were dissolved in a cytolytic solution (50 mM Tris-HCl pH 7.5, 0.15M NaCl, 1% NP-40, 10% glycerol, 1 mM EDTA, 1 mM EGTA pH 7.5, 1 mM Na3VO4, 5 mM p-nitrophenylphosphate, 10 mM O-glycerophosphate, 1 mM DTT, 1 mM PMSF, 10 μg/ml leupeptin, 10 μg/ml aprotinin (by Sigma)) to prepare a large amount of an cell extract, which was then purified on an anti-FLAG M2 antibody (by Sigma). This experimental operation was carried out in accordance with gene manipulation experiment manuals such as known methods (Sambrook, J. et al, Molecular Cloning-A Laboratory Manual, Cold Spring Harbor laboratory, NY, 1989) or the instructions attached to the reagents. The purified rat IKK2 was stored in an enzyme preservative (20 mM Tris-HCl pH 7.5, 10% glycerol, 12.5 mM β-glycerophosphate, 0.5 mM EDTA, 0.5 mM EGTA, 0.05% Brij35, 1 mM DTT, 1 mM PMSF (by Sigma)) at −80° C.
# The purified rat IKK2, 1× enzymatic reaction buffer (20 mM Tris-HCl pH 7.5, 12.5 mM O-glycerophosphate, 20 mM MgCl2, 0.1 mM DTT), 0.01% BSA (by Sigma), 0.5 μM ATP, 0.2 μM biotinated substrate peptide (18th to 49th amino acid residues of rat I-kappa B alpha (GenBank Q63746)) and a test compound dissolved in DMSO were added to a 384-well plate (catalogue No. 3677, by Corning) to be 10 μl in total therein, and left at room temperature for 90 minutes. Next, […] of a reaction stopper (100 mM Hepse pH 8, 0.01% BSA, 0.8 M KF, 50 mM EDTA pH 8, 1% Triton X-100, europium cryptate-labeled anti-phosphorylation I-kappa B alpha-antibody (by Santa Cru), streptoavidin-labeled XL665 (by Nihon Schering)) was added thereto, kept warmed for 30 minutes, and then assayed with DISCOVERY (by Perkin-Elmer). The rat IKK2 enzyme activity-inhibitory effect of the tested compound was obtained according to the following formula. Every dose was tested independently three times. Inhibition (%) by Test Compound=((mean value with rat IKK2 but not with test compound)−(mean value with both test compound and rat IKK2))/((mean value with rat IKK2 but not with test compound)−(mean value not with rat IKK2))×100.
# [2] = test system: TNF-α production; experiment: Mouse LPS-induced TNF-α production model; assay type: in vivo, Balb/c female mice; conditions: Mus musculus, po, 1.5 h, oral administration of 30 mg/kg, 60 minutes before LPS, blood 90 minutes after LPS; read-out: inhibition of plasma TNF-α
# Experimental: (2) Mouse LPS-Induced TNF-α Production Model:
# 6 weeks old Balb/c female mice were placed into two groups, a control group and a test compound administration group. A solution containing 10 μg/mouse of LPS in 0.9% physiological salt was administered by intraperitoneal injection into the control mice. 60 minutes before the LPS administration, a compound of the invention was orally administered to the mice of the test compound administration group. Under anesthesia with diethyl ether, blood was collected from the posterior venous cavity of the mice of both the test compound administration group and the control group at 90 minutes after the LPS administration, and treated with heparin, and the plasma was separated from it through centrifugation at 10000 rpm at 4° C. for 10 minutes, and then diluted two-fold with PBS (pH 7.4).
# The TNF-α concentration in the sample was determined with an ELISA kit (by Pharmingen, San Diego, Calif.). The inhibition by the mice of the test compound administration group relative to the mean inhibition by those of the control group was calculated as a mean value thereof.
# The inhibition in oral administration of 30 mg/kg of compound (I) is shown below.
# [3] = test system: collagen-induced rheumatoid arthritis; experiment: Rat collagen-induced rheumatoid arthritis model; assay type: in vivo; conditions: oral administration at a dose of 30 mg/kg, 14 days
# Experimental: (4) Collagen-Induced Rheumatoid Arthritis Model:
# The effect to rat collagen-induced rheumatoid arthritis was evaluated according to a partial modification of the method described in The Japanese Journal of Pharmacology, 1997 August; 74(4): 313-22.
# 10 mL of a 1 mg/mL solution of bovine-derived type 2 collagen (by Cosmobio) diluted three-fold with acetic acid was mixed with adjuvant incomplete Freund (by Difco) in 1/1, and emulsified to give an emulsion for sensitization. The tail root of each rat in a control group and in a test compound administration group was disinfected with ethanol, and collagen-sensitized through intradermal injection of 0.4 mL of the emulsion containing […] of collagen thereinto to thereby induce rheumatoid arthritis. The rats in the non-sensitized group were not treated for collagen sensitization. To the rats of the control group, 10 mL/kg of 0.5% methyl cellulose was orally administered. To the rats of the test compound administration group, a compound of the invention was orally administered. One week after the sensitization, the administration continued for 14 days. The degree of inflammation was judged by measuring the rheumatoid arthritis scores of the four limbs of each rat (scoring). Briefly, the symptom of each articulation was visually grouped into the following four ranks (0: normal, 1: flare or light swelling, 2: middle swelling, 3: heavy swelling or joint ankylosis); and the total of the numerical data of the four limbs is referred to as the rheumatoid arthritis score. The scoring was carried out every other day after the development of rheumatoid arthritis. The cumulative rheumatoid arthritis score was calculated by totaling the rheumatoid arthritis scores on every scoring date of every individual. Relative to the mean cumulative rheumatoid arthritis score of rats of the control group, the inhibition by the those of the test compound administration group was calculated, and the mean value of the data was shown.
IC50 [1] [nM],SMILES,inhibition in vivo at 30 mg/kg [2] [%],inhibition of cumulative rheumatoid arthritis score [3] [%]
≤ 500,Nc1nc(-c2c(O)cccc2OCC2CCC2)cc(C2CCCNC2)n1 (stereo not shown) [Example 85],85,~100
≤ 500,Nc1nc(-c2c(O)cccc2OCC2CC2)cc(C2CCCNC2)n1 (stereo not shown) [Example 37],,~100
≤ 500,Nc1nc(-c2c(O)cccc2OCC2CCCC2)cc(C2CCCNC2)n1 (stereo not shown) [Example 92],,~100
